Results: patent publication US10941115B2, “Kinase inhibitors” (Oxular Acquisitions Limited, priority 2014, dated 2021)
Structures can show the parent of a compound that is named as a salt. Where two headings read alike, the source gives them in different places.

Key:
[1] = Stability of pharmaceutical formulations (1 mg/mL solutions); assay type: physicochemical; details: for Purity (%) at week n = 4: week 4; for Purity (%) at week n = 1: week 1
Procedure: The samples were sonicated to achieve clear solutions having the following properties: Osmolality (mOsm/kg): 310 (Na), 314 (HCl); pH: 7.00 (Na), 7.05 (HCl). 0.5 mL of the stock solutions were diluted to 1 mL with 20% DMSO in water & injected for purity analysis by HPLC. The remaining stock solutions were then split into aliquots of 0.5 mL in HPLC vials, and stored at various conditions in duplicate. Samples were stored at 5 and 25° C., before being analysed by HPLC at 1, 2 and 4 weeks. Separate samples were stored at 40° C. and analysed at 4 weeks.

[2] = tested on: non-mutant kinases; assay type: binding; details: for KinomeScan Selectivity Score S(1): fraction of non-mutant kinases with % Ctrl <1; for KinomeScan Selectivity Score S(10): fraction of non-mutant kinases with % Ctrl <10
Text: These assays may be conducted by DiscoverX (formerly Ambit; San Diego, Calif.).

[3] = tested on: Escherichia coli WP2 uvrA; assay: Bacterial reverse mutation screen (plate incorporation, ±S-9); details: for mutagenic effects (revertant numbers): presence and absence of S-9 mix
[4] = tested on: Salmonella typhimurium strains TA1535, TA1537, TA98 and TA100; assay: as above; details: for mutagenic effects (revertant numbers): TA1535, TA1537, TA98, TA100, presence and absence of S-9 mix; for toxicity to the bacteria (mean colony count): at the highest doses (500-5000 μg/plate), some strains
[5] = Hydrolytic stability study in DMSO/water (3:1) at 60 °C; assay type: physicochemical; details: DMSO/water 3:1, 1 mg/mL, result in words
Procedure: Flow rate 2.5 mL/min. Column Oven Temperature 40° C. […] The peak area for the test compound was recorded following manual integration of the corresponding UV trace. • The test solution was heated to 60° C., with stirring, and 50 μL aliquots removed for HPLC analysis at 5 and 24 h timepoints.

[6] = tested on: LPS-stimulated rats; assay: Endotoxin-induced uveitis in rats (assay vi); assay type: in vivo, Lewis rats; details: rats treated with intravitreal LPS, result in words
Procedure: Male, Lewis rats (6-8 weeks old, Charles River UK Limited) are housed in cages of 3 at 19-21° C. with a 12 h light/dark cycle (07:00/19:00) and fed a standard diet of rodent chow and water ad libitum. Non-fasted rats are weighed, individually identified on the tail with a permanent marker, and receive a single intravitreal administration into the right vitreous humor (5 μL dose volume) of 100 ng/animal of LPS (Escherichia coli 0111:B4 prepared in PBS, Sigma Aldrich, UK) using a 32-gauge needle. Untreated rats are injected with PBS. Test compound or vehicle (4% polyoxyl 40 stearate, 4% mannitol in PBS (pH 7.4)) are administered by the topical route onto the right eye (10 μL) of animals 1 hour prior to LPS, at the time of LPS administration, and 1, 2 and 4 hours post LPS administration. Before administration, the solution to be administered is sonicated to ensure a clear solution. 6 hours after LPS dosing, animals are euthanized by overdose with pentobarbitone (via cardiac puncture). Immediately after euthanasia, 10 μL of aqueous humor is collected from the right eye of the rats by puncture of the anterior chamber using a 32 gauge needle under a surgical microscope. The aqueous humor is diluted in 20 μL of PBS and total cell counts are measured immediately using a Countess automated cell counter (Invitrogen). […]

[7] = 0.1 and 1.0 mg/mL, four daily ocular instillations, rabbits

Q: Which “Purity (%) at week n = 4” value ([1]; 1 mg/mL solution, Sample 1, 40° C.) does the source give for COc1cc(Nc2cc(Oc3ccc(NC(=O)Nc4cc(C(C)(C)C)cc(NS(C)(=O)=O)c4OC)c4ccccc34)ccn2)ccc1C(=O)O [Example 1, sodium salt] here?
A: 76.0%

Q: What does the source list for COc1cc(Nc2cc(Oc3ccc(NC(=O)Nc4cc(C(C)(C)C)cc(NS(C)(=O)=O)c4OC)c4ccccc34)ccn2)cc(OC)c1C(=O)NCCOCCOCCO [Example 36, 4-((4-((4-(3-(5-(tert-butyl)-2-methoxy-3-(methylsulfonamido)phenyl)ureido)naphthalen-1-yl)oxy)pyridin-2-yl)amino)-N-(2-(2-(2-hydroxyethoxy)ethoxy)ethyl)-2,6-dimethoxybenzamide]?
A: KinomeScan Selectivity Score S(1) ([2]; 50 nM): 0.002; KinomeScan Selectivity Score S(10) ([2]; 50 nM): 0.050; KinomeScan Selectivity Score S(1) ([2]; 500 nM): 0.079

Q: For COc1cc(Nc2cc(Oc3ccc(NC(=O)Nc4cc(C(C)(C)C)cc(NS(C)(=O)=O)c4OC)c4ccccc34)ccn2)cc(OC)c1C(=O)NCCOCCOCCOP(=O)(O)O [Example 47, 2-(2-(2-(4-((4-((4-(3-(5-(tert-butyl)-2-methoxy-3-(methylsulfonamido)phenyl)ureido)-naphthalen-1-yl)oxy)pyridin-2-yl)amino)-2,6-dimethoxybenzamido)ethoxy)ethoxy)ethyl dihydrogen phosphate], which “KinomeScan Selectivity Score S(10)” value ([2]; 50 nM) is on record?
A: 0.042

Q: What about the “KinomeScan Selectivity Score S(1)” value ([2]; 500 nM) of the same compound?
A: 0.074

Q: With COc1cc(Nc2cc(Oc3ccc(NC(=O)Nc4cc(C(C)(C)C)cc(NS(C)(=O)=O)c4OC)c4ccccc34)ccn2)ccc1P(C)(=O)O [Example 44, (4-((4-((4-(3-(5-(tert-Butyl)-2-methoxy-3-(methylsulfonamido)phenyl)ureido)naphthalen-1-yl)oxy)pyridin-2-yl)amino)-2-methoxyphenyl)(methyl)phosphinic acid] as the compound, how does the “toxicity to the bacteria (mean colony count)” value ([3]; 5000 μg/plate, absence of S-9 mix) read?
A: reduction in the mean colony count

Q: And the “mutagenic effects (revertant numbers)” value [3]?
A: absence of any mutagenic effects

Q: What about the “mutagenic effects (revertant numbers)” value [4] of the same compound?
A: absence of any mutagenic effects

Q: And the “toxicity to the bacteria (mean colony count)” value [4]?
A: reduction in the mean colony count

Q: With C#Cc1cc(Nc2nccc(Oc3ccc(NC(=O)Nc4cc(C(C)C)nn4-c4ccc(C)cc4)c4ccccc34)n2)cc(C(=O)NCCN2CCOCC2)c1 [Reference Compound B, 3-ethynyl-5-((4-((4-(3-(3-isopropyl-1-(p-tolyl)-1H-pyrazol-5-yl)ureido)naphthalen-1-yl)oxy)pyrimidin-2-yl)amino)-N-(2-morpholinoethyl)benzamide] as the compound, how does the “decomposition under the conditions of the hydrolytic stability study” value [5] read?
A: underwent substantial decomposition

Q: What does the source list for COc1cc(Nc2cc(Oc3ccc(NC(=O)Nc4cc(C(C)(C)C)cc(NS(C)(=O)=O)c4OC)c4ccccc34)ccn2)ccc1C(=O)O [Example 1, 4-((4-((4-(3-(5-(tert-Butyl)-2-methoxy-3-(methylsulfonamido)phenyl)ureido)naphthalen-1-yl)oxy)pyridin-2-yl)amino)-2-methoxybenzoic acid]?
A: cellular infiltration (cell counts) in the eyes [6]: significantly and dose-dependently reduced cellular infiltration; cytokine IL-1β levels in anterior and posterior segments of the eyes [6]: significantly and dose-dependently reduced; mutagenic effects (revertant numbers) [3]: absence of any mutagenic effects; mutagenic effects (revertant numbers) [4]: absence of any mutagenic effects; toxicity to the bacteria (mean colony count) [4]: reduction in the mean colony count; local tolerability of the formulations ([7]; Phase 1: one treatment day): acceptable after a single dosing day; ocular reactions compared with vehicle controls ([7]; Phase 1: one treatment day): no differences in the frequency, severity and incidence between the Example 1-treated animals and the vehicle controls; local tolerability of the formulations ([7]; Phase 2: three consecutive treatment days): acceptable without any aggravation for the 3 treatment days; stability in solution ([1]; 1 mg/mL Na and HCl salts in pH 7.2 phosphate buffer, 4.5% mannitol, 3% polyoxyl 40 stearate): stable in solution at 5 °C

Q: For COc1cc(Nc2cc(Oc3ccc(NC(=O)Nc4cc(C(C)(C)C)cc(NS(C)(=O)=O)c4OC)c4ccccc34)ccn2)ccc1C(=O)O.Cl [Example 1, hydrochloride salt], which “Purity (%) at week n = 1” value ([1]; 1 mg/mL solution, Sample 1, 25° C.) is on record?
A: 98.0%

Q: What about the “Purity (%) at week n = 2” value ([1]; 1 mg/mL solution, Sample 2, 5° C., week 2) of the same compound?
A: 98.0%

Q: And the “Purity (%) at week n = 4” value ([1]; 1 mg/mL solution, Sample 2, 5° C.)?
A: 98.0%

Q: What about the “Purity (%) at week n = 1” value ([1]; 1 mg/mL solution, Sample 2, 25° C.) of the same compound?
A: 98.0%
